Experimental data published in patent US6355225B1, “Fullerene contrast agent for magnetic resonance imaging and spectroscopy” (Wm. Marsh Rice University TDA Research, Inc., priority 1999, dated 2002).

What was measured:
Type in all cases: physicochemical
[1] = Air stability of the paramagnetic fullerol
Source text: According to a second embodiment, a water-soluble, paramagnetic fullerene derivative comprising about 32 hydroxyl groups attached to C60 fullerene was synthesized and shown to be air-stable, paramagnetic, and an efficient water proton relaxation agent.
These experimental results make C60(OH)32 (or C60(OH)32^− or C60(OH)32^2−) the first reported water-soluble, air-stable fullerene paramagnetic radical.

[2] = Water proton relaxivity (T1), Bruker PC/20 relaxometer; conditions: 20 MHz (0.47 T), 40° C., four concentrations
Experimental: The paramagnetic fullerol's potential as an MRI relaxation agent was evaluated by direct measurement of its water proton relaxivity using a Bruker model PC/20 relaxometer (Bruker Ltd., Canada) operating at a fixed field of 20 MHz (0.47 T) and 40° C. Four separate measurements at four different concentrations were performed to determine the T1 relaxation. A plot of the results is shown in FIG. 3 and indicates a relaxivity of about 0.5 mM^−1sec^−. The relaxivity of the compound is thus considerably lower than the best currently available Gd-chelates (ca. […]) but is still large enough to be useful in the body.

[3] = Water solubility of the C60(OH)32 fullerol
[4] = Effective magnetic moment of solid sample, Quantum Design MPMS-5S magnetometer at 5 Tesla; conditions: 300 K, after diamagnetic correction
Source text: (§1) The magnetic properties of the fullerol were characterized by several methods. […] A solid sample was further studied using a Quantum Design MPMS-5S […] magnetometer operating at 5 Tesla. […] After correction for the diamagnetic contribution of the sample (using data from C60 for the fullerene carbons and Pascal's constants for the OH groups), the final value of the effective magnetic moment, μb, of the C60(OH)32 is approximately 1.5 Bohr magnetons at 300 K. Given the large diamagnetic contribution, uncertainty in the diamagnetic correction factors, and assuming no spin orbit or other types of spin coupling, this is within the experimental error for predicting one free electron per fullerol molecule in the solid state. A measurement of the paramagnetism of the solution form of the acid fullerol was then conducted using the NMR method employing D2O as the solvent and t-butyl alcohol as the reference compound. Measurement of the chemical shift of the reference peaks indicated a paramagnetism of 2.1 Bohr magnetons at 300 K when in solution.

[5] = Paramagnetism in solution by the NMR method (D2O solvent, t-butyl alcohol reference); conditions: 300 K
Source text: as §1

What does the source list for C60(OH)32?
stability in air [1]: air-stable; water proton relaxivity (T1) [2]: about 0.5 mM^−1sec^−; solubility in water [3]: at least 4 mM; effective magnetic moment [4]: approximately 1.5 Bohr magnetons; paramagnetism in solution [5]: 2.1 Bohr magnetons
